Source: PubChem BioAssay (NCI)
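Assay format: 96-well plates, 48-hour exposure. TGI marks complete inhibition of growth.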

Experiments:
Experiment in all cases: NCI tumour cell line growth inhibition, 48 h
[1] = tested on: A498 renal
[2] = tested on: A549 NSCLC
[3] = tested on: CAKI-1 renal
[4] = tested on: CCRF-CEM leukemia
[5] = tested on: COLO 205 colon
[6] = tested on: DLD-1 colon
[7] = tested on: DMS 273 small cell lung
[8] = tested on: EKVX NSCLC
[9] = tested on: HCC-2998 colon
[10] = tested on: HCT-116 colon
[11] = tested on: HCT-15 colon
[12] = tested on: HL-60(TB) leukemia
[13] = tested on: HOP-62 NSCLC
[14] = tested on: HOP-92 NSCLC
[15] = tested on: HT29 colon
[16] = tested on: IGROV1 ovarian
[17] = tested on: K-562 leukemia
[18] = tested on: KM12 colon
[19] = tested on: KM20L2 colon
[20] = tested on: LOX IMVI melanoma
[21] = tested on: M19-MEL melanoma
[22] = tested on: MALME-3M melanoma
[23] = tested on: MCF7 breast
[24] = tested on: MOLT-4 leukemia
[25] = tested on: NCI-H226 lung
[26] = tested on: NCI-H23 lung
[27] = tested on: NCI-H460 lung
[28] = tested on: NCI/ADR-RES ovarian
[29] = tested on: OVCAR-3 ovarian
[30] = tested on: OVCAR-4 ovarian
[31] = tested on: OVCAR-5 ovarian
[32] = tested on: OVCAR-8 ovarian
[33] = tested on: P388 leukemia
[34] = tested on: P388/ADR leukemia
[35] = tested on: RPMI-8226 leukemia
[36] = tested on: RXF 393 renal
[37] = tested on: SF-268 CNS
[38] = tested on: SF-295 CNS
[39] = tested on: SF-539 CNS
[40] = tested on: SK-MEL-2 melanoma
[41] = tested on: SK-MEL-28 melanoma
[42] = tested on: SK-MEL-5 melanoma
[43] = tested on: SK-OV-3 ovarian
[44] = tested on: SN12C renal
[45] = tested on: SN12K1 renal
[46] = tested on: SNB-19 CNS
[47] = tested on: SNB-75 CNS
[48] = tested on: SNB-78 CNS
[49] = tested on: SW-620 colon
[50] = tested on: U251 CNS
[51] = tested on: UACC-257 melanoma
[52] = tested on: UACC-62 melanoma
[53] = tested on: UO-31 renal
[54] = tested on: XF 498 CNS
[55] = tested on: 786-0 renal
[56] = tested on: ACHN renal
[57] = tested on: BT-549 breast
[58] = tested on: DMS 114 small cell lung
[59] = tested on: HOP-18 NSCLC
[60] = tested on: MDA-MB-231 breast
[61] = tested on: NCI-H522 lung
[62] = tested on: SR leukemia

SMILES: COc1ccc(OC)c(C#N)c1C#N (tested in a mixture with another compound)
- TGI [1]: > 100 µM
- TGI [2]: > 100 µM
- TGI [3]: > 100 µM
- TGI [4]: > 100 µM
- TGI [5]: > 100 µM
- TGI [6]: > 100 µM
- TGI [7]: > 100 µM
- TGI [8]: > 88 µM
- TGI [9]: > 100 µM
- TGI [10]: > 100 µM
- TGI [11]: > 100 µM
- TGI [12]: > 100 µM
- TGI [13]: > 100 µM
- TGI [14]: > 100 µM
- TGI [15]: > 100 µM
- TGI [16]: > 100 µM
- TGI [17]: > 100 µM
- TGI [18]: > 100 µM
- TGI [19]: > 100 µM
- TGI [20]: > 100 µM
- TGI [21]: > 100 µM
- TGI [22]: > 100 µM
- TGI [23]: > 100 µM
- TGI [24]: > 100 µM
- TGI [25]: > 100 µM
- TGI [26]: > 100 µM
- TGI [27]: > 100 µM
- TGI [28]: > 100 µM
- TGI [29]: > 100 µM
- TGI [30]: > 100 µM
- TGI [31]: > 100 µM
- TGI [32]: > 100 µM
- TGI [33]: > 100 µM
- TGI [34]: > 100 µM
- TGI [35]: > 100 µM
- TGI [36]: > 100 µM
- TGI [37]: > 100 µM
- TGI [38]: > 100 µM
- TGI [39]: > 100 µM
- TGI [40]: > 100 µM
- TGI [41]: > 100 µM
- TGI [42]: > 100 µM
- TGI [43]: > 100 µM
- TGI [44]: > 100 µM
- TGI [45]: > 100 µM
- TGI [46]: > 100 µM
- TGI [47]: > 100 µM
- TGI [48]: > 100 µM
- TGI [49]: > 100 µM
- TGI [50]: > 100 µM
- TGI [51]: > 100 µM
- TGI [52]: > 100 µM
- TGI [53]: > 100 µM
- TGI [54]: > 100 µM

SMILES: CCCCCCCCCCCCCCCCCCOP(=O)([O-])OCC[N+](C)(C)C
- TGI [55]: 0.169 µM
- TGI [1]: > 46.4 µM
- TGI [2]: 5.13 µM
- TGI [56]: 0.37 µM
- TGI [57]: 5.82 µM
- TGI [3]: 22.8 µM
- TGI [4]: 2.52 µM
- TGI [5]: 0.5 µM
- TGI [6]: 16.9 µM
- TGI [58]: 26.8 µM
- TGI [7]: 13.4 µM
- TGI [8]: 8.29 µM
- TGI [9]: 7.01 µM
- TGI [10]: 3.12 µM
- TGI [11]: 3.24 µM
- TGI [12]: 5.83 µM
- TGI [59]: 30.1 µM
- TGI [13]: 1.38 µM
- TGI [14]: 1.07 µM
- TGI [15]: 2.2 µM
- TGI [16]: 26.1 µM
- TGI [17]: 10.4 µM
- TGI [18]: 0.632 µM
- TGI [19]: 12.5 µM
- TGI [20]: 1.96 µM
- TGI [21]: 16.3 µM
- TGI [22]: 3.38 µM
- TGI [23]: 3.11 µM
- TGI [60]: 3.5 µM
- TGI [24]: 5.89 µM
- TGI [25]: 3.31 µM
- TGI [26]: 30.4 µM
- TGI [27]: 1.94 µM
- TGI [61]: 1.46 µM
- TGI [28]: 5.22 µM
- TGI [29]: 2.79 µM
- TGI [30]: 1.29 µM
- TGI [31]: 6.82 µM
- TGI [32]: 2.39 µM
- TGI [33]: 15.1 µM
- TGI [34]: 27.3 µM
- TGI [35]: 2.64 µM
- TGI [36]: 23.1 µM
- TGI [37]: 2.21 µM
- TGI [38]: 3.49 µM
- TGI [39]: 2.59 µM
- TGI [40]: 3.11 µM
- TGI [41]: 42.2 µM
- TGI [42]: 17.5 µM
- TGI [43]: 43.4 µM
- TGI [44]: 1.53 µM
- TGI [45]: 26.9 µM
- TGI [46]: 47.9 µM
- TGI [47]: 1.7 µM
- TGI [48]: 15.8 µM
- TGI [62]: > 100 µM
- TGI [49]: 6.66 µM
- TGI [50]: 4.71 µM
- TGI [51]: 25.6 µM
- TGI [52]: 20.8 µM
- TGI [53]: 36.1 µM
- TGI [54]: 25.4 µM
